Data reported in the supplement of paper PMC10307832.

Columns and labels:
Experiment in all cases: relative viability (nuclei count vs DMSO), 5 days (fraction); higher = more cells survive
NCI-H2087 = system: NCI-H2087
Method in brief: (§1)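 A single step with final 0.05% Triton X-100, 1% formaldehyde and 1 ug/ml Hoechst fixed the cells and stained nuclei 5 days after treatment. Lung cancer cell lines in 1536-well plates had been treated by pin tool the day after seeding with one drug alone or a fixed anchor-drug dose plus five library-drug doses (not always all listed) in √10 steps, and nuclei were counted on 4× images. Relative viability is the ratio of nuclei in treated wells to nuclei in vehicle wells, taken as the median of duplicate plates.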

LU99A = system: LU99A
Method in brief: as §1

NCI-H838 = system: NCI-H838
Method in brief: as §1

HCC-827 = system: HCC-827
Method in brief: as §1

LCLC-103H = system: LCLC-103H
Method in brief: as §1

SK-MES-1 = system: SK-MES-1
Method in brief: as §1

NCI-H1651 = system: NCI-H1651
Method in brief: as §1

EPLC-272H = system: EPLC-272H
Method in brief: as §1

NCI-H1793 = system: NCI-H1793
Method in brief: as §1

NCI-H1395 = system: NCI-H1395
Method in brief: as §1

EMC-BAC-2 = system: EMC-BAC-2
Method in brief: as §1

NCI-H1944 = system: NCI-H1944
Method in brief: as §1

COR-L23 = system: COR-L23
Method in brief: as §1

NCI-H2023 = system: NCI-H2023
Method in brief: as §1

HCC-44 = system: HCC-44
Method in brief: as §1

NCI-H1563 = system: NCI-H1563
Method in brief: as §1

NCI-H2085 = system: NCI-H2085
Method in brief: as §1

NCI-H2405 = system: NCI-H2405
Method in brief: as §1

H3255 = system: H3255
Method in brief: as §1

NCI-H520 = system: NCI-H520
Method in brief: as §1

NCI-H650 = system: NCI-H650
Method in brief: as §1

ChaGo-K-1 = system: ChaGo-K-1
Method in brief: as §1

Structure (SMILES): O=c1cc(N2CCOCC2)oc2c(-c3cccc4c3sc3ccccc34)cccc12 + CCNC(=O)c1noc(-c2cc(C(C)C)c(O)cc2O)c1-c1ccc(CN2CCOCC2)cc1 [Luminespib] (partner 0.01 µM)
- relative viability (NCI-H2087; first compound 0.01 µM): 0.148
- relative viability (NCI-H2087; first compound 0.03162 µM): 0.146
- relative viability (NCI-H2087; first compound 0.1 µM): 0.173
- relative viability (NCI-H2087; first compound 0.3162 µM): 0.237
- relative viability (NCI-H2087; first compound 1 µM): 0.169
- relative viability (LU99A; first compound 0.01 µM): 0.266
- relative viability (LU99A; first compound 0.03162 µM): 0.23
- relative viability (LU99A; first compound 0.1 µM): 0.232
- relative viability (LU99A; first compound 0.3162 µM): 0.267
- relative viability (LU99A; first compound 1 µM): 0.183
- relative viability (NCI-H838; first compound 0.01 µM): 0.347
- relative viability (NCI-H838; first compound 0.03162 µM): 0.362
- relative viability (NCI-H838; first compound 0.1 µM): 0.406
- relative viability (NCI-H838; first compound 0.3162 µM): 0.294
- relative viability (NCI-H838; first compound 1 µM): 0.287
- relative viability (HCC-827; first compound 0.01 µM): 0.642
- relative viability (HCC-827; first compound 0.03162 µM): 0.541
- relative viability (HCC-827; first compound 0.1 µM): 0.626
- relative viability (HCC-827; first compound 0.3162 µM): 0.629
- relative viability (HCC-827; first compound 1 µM): 0.71
- relative viability (LCLC-103H; first compound 0.01 µM): 0.912
- relative viability (LCLC-103H; first compound 0.03162 µM): 1.01
- relative viability (LCLC-103H; first compound 0.1 µM): 1.02
- relative viability (LCLC-103H; first compound 0.3162 µM): 0.898
- relative viability (LCLC-103H; first compound 1 µM): 0.925
- relative viability (SK-MES-1; first compound 0.01 µM): 0.712
- relative viability (SK-MES-1; first compound 0.03162 µM): 0.767
- relative viability (SK-MES-1; first compound 0.1 µM): 0.736
- relative viability (SK-MES-1; first compound 0.3162 µM): 0.661
- relative viability (SK-MES-1; first compound 1 µM): 0.741
- relative viability (NCI-H1651; first compound 0.01 µM): 0.777
- relative viability (NCI-H1651; first compound 0.03162 µM): 0.736
- relative viability (NCI-H1651; first compound 0.1 µM): 0.824
- relative viability (NCI-H1651; first compound 0.3162 µM): 0.712
- relative viability (NCI-H1651; first compound 1 µM): 0.807
- relative viability (EPLC-272H; first compound 0.01 µM): 0.244
- relative viability (EPLC-272H; first compound 0.03162 µM): 0.449
- relative viability (EPLC-272H; first compound 0.3162 µM): 0.19
- relative viability (EPLC-272H; first compound 1 µM): 0.281
- relative viability (NCI-H1793; first compound 0.01 µM): 0.159
- relative viability (NCI-H1793; first compound 0.1 µM): 0.173
- relative viability (NCI-H1793; first compound 0.3162 µM): 0.134
- relative viability (NCI-H1793; first compound 1 µM): 0.18
- relative viability (NCI-H1395; first compound 0.01 µM): 0.726
- relative viability (NCI-H1395; first compound 0.03162 µM): 0.75
- relative viability (NCI-H1395; first compound 0.1 µM): 0.683
- relative viability (NCI-H1395; first compound 0.3162 µM): 0.622
- relative viability (NCI-H1395; first compound 1 µM): 0.532
- relative viability (EMC-BAC-2; first compound 0.01 µM): 1.21
- relative viability (EMC-BAC-2; first compound 0.03162 µM): 1.24
- relative viability (EMC-BAC-2; first compound 0.1 µM): 1.14
- relative viability (EMC-BAC-2; first compound 0.3162 µM): 1.07
- relative viability (EMC-BAC-2; first compound 1 µM): 1.11
- relative viability (NCI-H1944; first compound 0.01 µM): 0.785
- relative viability (NCI-H1944; first compound 0.03162 µM): 0.758
- relative viability (NCI-H1944; first compound 0.1 µM): 0.687
- relative viability (NCI-H1944; first compound 0.3162 µM): 0.728
- relative viability (NCI-H1944; first compound 1 µM): 0.749
- relative viability (COR-L23; first compound 0.01 µM): 0.763
- relative viability (COR-L23; first compound 0.03162 µM): 0.654
- relative viability (COR-L23; first compound 0.1 µM): 0.724
- relative viability (COR-L23; first compound 0.3162 µM): 0.608
- relative viability (COR-L23; first compound 1 µM): 0.779
- relative viability (NCI-H2023; first compound 0.01 µM): 0.672
- relative viability (NCI-H2023; first compound 0.03162 µM): 0.72
- relative viability (NCI-H2023; first compound 0.1 µM): 0.793
- relative viability (NCI-H2023; first compound 0.3162 µM): 0.859
- relative viability (NCI-H2023; first compound 1 µM): 0.588
- relative viability (HCC-44; first compound 0.01 µM): 1.02
- relative viability (HCC-44; first compound 0.03162 µM): 1.01
- relative viability (HCC-44; first compound 0.1 µM): 1.31
- relative viability (HCC-44; first compound 0.3162 µM): 0.998
- relative viability (HCC-44; first compound 1 µM): 1.11
- relative viability (NCI-H1563; first compound 0.01 µM): 0.519
- relative viability (NCI-H1563; first compound 0.03162 µM): 0.552
- relative viability (NCI-H1563; first compound 0.1 µM): 0.515
- relative viability (NCI-H1563; first compound 0.3162 µM): 0.558
- relative viability (NCI-H1563; first compound 1 µM): 0.544
- relative viability (NCI-H2085; first compound 0.01 µM): 0.407
- relative viability (NCI-H2085; first compound 0.03162 µM): 0.427
- relative viability (NCI-H2085; first compound 0.1 µM): 0.534
- relative viability (NCI-H2085; first compound 0.3162 µM): 0.49
- relative viability (NCI-H2085; first compound 1 µM): 0.48
- relative viability (NCI-H2405; first compound 0.01 µM): 0.712
- relative viability (NCI-H2405; first compound 0.03162 µM): 0.571
- relative viability (NCI-H2405; first compound 0.1 µM): 0.722
- relative viability (NCI-H2405; first compound 0.3162 µM): 0.717
- relative viability (NCI-H2405; first compound 1 µM): 0.681
- relative viability (H3255; first compound 0.01 µM): 0.885
- relative viability (H3255; first compound 0.03162 µM): 0.991
- relative viability (H3255; first compound 0.1 µM): 0.948
- relative viability (H3255; first compound 0.3162 µM): 0.909
- relative viability (H3255; first compound 1 µM): 0.945
- relative viability (NCI-H520; first compound 0.01 µM): 0.213
- relative viability (NCI-H520; first compound 0.03162 µM): 0.285
- relative viability (NCI-H520; first compound 0.1 µM): 0.24
- relative viability (NCI-H520; first compound 0.3162 µM): 0.209
- relative viability (NCI-H520; first compound 1 µM): 0.249
- relative viability (NCI-H650; first compound 0.03162 µM): 0.846
- relative viability (NCI-H650; first compound 0.1 µM): 0.638
- relative viability (NCI-H650; first compound 0.3162 µM): 0.917
- relative viability (NCI-H650; first compound 1 µM): 0.813
- relative viability (ChaGo-K-1; first compound 0.01 µM): 0.689
- relative viability (ChaGo-K-1; first compound 0.03162 µM): 0.682
- relative viability (ChaGo-K-1; first compound 0.1 µM): 0.714
- relative viability (ChaGo-K-1; first compound 0.3162 µM): 0.582
- relative viability (ChaGo-K-1; first compound 1 µM): 0.689
